{
  "source": "paper PMC10961402",
  "about": "“Safety, tolerability, pharmacokinetics and pharmacokinetic-pharmacodynamic modeling of cetagliptin in patients with type 2 diabetes mellitus” (Frontiers in Endocrinology, 2024)",
  "format_in_all_cases": "in vivo, human",
  "key": {"[1]": {"assay": "Plasma pharmacokinetics after single and multiple oral doses (non-compartmental analysis)", "settings": "patients with T2DM; for AUC(0-t): po, 100 mg", "protocol": "This was a single-center, randomized, double-blind, placebo and positive-controlled, single and multiple oral-dose study. A total of 32 Chinese adults diagnosed with T2DM were recruited for this study and allocated into two dosage groups: 50 mg and 100 mg, each consisting of 16 participants. […] The positive control was designed as open label. […] Subjects underwent medication randomization on day -1, and were assigned the corresponding investigational products. They were orally administered to the drug once every morning on fasting condition for 14 consecutive days. […] After finished the dosing, another OGTT was performed on day 15. Blood samples were collected at designated time points for the analysis of PK/PD and exploratory indicators. Subjects were discharged after completion of the safety assessments on day 19. […] PK parameters were calculated using non-compartmental analysis with Phoenix WinNonlin (version 8.1, Certara, Co., Princeton, NJ, United States). Peak plasma concentration after administration (Cmax) and time to reach Cmax (Tmax) were obtained directly from the observed data, elimination half-life (t1/2) was calculated as ln2/λz using the best fit mode, where λz was the terminal elimination rate constant. Area under the plasma concentration-time curve from zero to the last measurable concentration (AUC0-t) was estimated using the linear trapezoidal method and AUC from zero to infinity (AUC0-∞) was calculated as AUC0-t+Ct/λz, where Ct was the last measured concentration. […] Apparent total plasma clearance after non-intravenous (CL/F) and apparent volume of distribution in terminal phase after non-intravenous (Vz/F) were calculated as Dose/AUC0-∞ and CL/λz, respectively."}, "plasma active GLP-1": {"tested_on": "plasma active GLP-1", "assay": "Plasma active GLP-1 concentration change from baseline (ELISA)", "settings": "patients with T2DM", "protocol": "Blood samples for GLP-1 activity evaluation were collected at the same time points as for PK. 2 mL blood samples were collected for GLP-1 activity detection (20 μL DPP-4i was added to blood-collecting tubes beforehand). The tubes were placed on ice until centrifugation. The blood samples were centrifuged at 2-8°C, 1500 g for 10 minutes within 1 hour after blood collection. After centrifugation, the blood samples were evenly divided into two aliquots and stored at -80 ± 10°C. Plasma active GLP-1 concentrations were determined using a validated ELISA method. Linear calibration curves were obtained in the concentration range of 0.017-276 pM ([31]).\nThe change of GLP-1 concentration from baseline (△GLP-1) was calculated as follows:\nΔ [GLP-1] = [GLP-1] (t) - [GLP-1] (0)\nThe calculated parameters for GLP-1 activity were as follows: the baseline GLP-1 value before dosing (Baseline), Rmax, TRmax, AUEC0-t, AUEC0-24h, GLP-1 concentration change at 2 h after lunch (△GLP-1-6h), GLP-1 concentration change at 2 h after dinner (△GLP-1-12h), Rmin on day 14, and the average response on day 14 (Ravg)."}, "[2]": {"assay": "Preliminary efficacy evaluation (FPG, 2 h PPG, HbA1c, GA)", "settings": "patients with T2DM; 100 mg once daily; day 14", "protocol": "Blood samples for determination of fasting plasma glucose (FPG) and 2 hour postprandial plasma glucose (2 h PPG) were collected on day -2, day 7 and day 14. Additionally, blood samples for determination of glycated Hemoglobin A1C (HbA1c) and glycated Albumin (GA) were collected on day -2 and day 14. The changes of the above indexes relative to pre-treatment baseline (day -2) were evaluated and compared to investigate the preliminary efficacy of investigational product."}, "[3]": {"tested_on": "glucose, insulin, C-peptide, and glucagon", "assay": "Oral glucose tolerance test (OGTT): glucose, insulin, C-peptide, glucagon", "settings": "patients with T2DM", "protocol": "To assess the impact of investigational products on glucose, insulin, C-peptide, and glucagon, OGTT tests were conducted on day -1 and day 15 following a fasting period of more than 8 hours. Subjects received a 75 g oral glucose dose and blood samples (1.5 mL for glucose, 3.5 mL for insulin and C-peptide, 2 mL for glucagon) were collected at 0, 0.167, 0.5, 1, 1.5, 2, and 3 h after ingestion of glucose. The PD parameters (AUEC0-t) for glucose, insulin, C-peptide, and glucagon were calculated by using drug effect module of non-compartmental method with Phoenix WinNonlin."}, "[4]": {"assay": "Safety and tolerability assessments (adverse events)", "settings": "patients with T2DM, 14 days", "protocol": "Safety and tolerability were evaluated by monitoring adverse events (AEs), laboratory tests (including blood routine, urine routine, stool routine, blood biochemical test and coagulation function), vital signs, physical examination, 12-lead electrocardiogram and other indicators. AEs were monitored and collected throughout the study. Descriptive analysis of the type and intensity of AEs were conducted according to NCICTC AE5.0."}, "[5]": {"settings": "100 mg oral once daily, day 14, median (range)"}, "[6]": {"settings": "cetagliptin group (50 or 100 mg, n=20) / sitagliptin group (100 mg, n=8)"}},
  "note": "Where two headings read alike, the source gives them in different places.",
  "data": [
    {"compound": "N[C@@H](CC(=O)N1CCn2c(nnc2C(F)(F)F)C1)Cc1cc(F)c(F)cc1F", "note": "[Sitagliptin, sitagliptin, reference compound]", "values": [
      {"measurement": "half-life", "setting": "[1]; human, in vivo, 100 mg oral once daily, day 14", "result": "9.12 ± 0.664", "unit": "h"},
      {"measurement": "AUC(0-t)", "setting": "[1]; human, plasma, 100 mg oral once daily, day 14, read-out: AUC0-24h", "result": "3760 ± 748", "unit": "ng·h/mL"},
      {"measurement": "AUC(0-t)", "setting": "[1]; human, plasma, 100 mg oral once daily, day 14, read-out: AUC0-t", "result": "4290 ± 783", "unit": "ng·h/mL"},
      {"measurement": "AUC(0-t)", "setting": "[1]; human, plasma, 100 mg oral, day 1, read-out: AUC0-24h", "result": "3340 ± 522", "unit": "ng·h/mL"},
      {"measurement": "AUC(0-inf)", "setting": "[1]; human, plasma, 100 mg oral once daily, day 14", "result": "4380 ± 789", "unit": "ng·h/mL"},
      {"measurement": "Cmax", "setting": "[1]; human, plasma, 100 mg oral once daily, day 14, read-out: Cmax,ss", "result": "419 ± 137", "unit": "ng/mL"},
      {"measurement": "Vd/F", "setting": "[1]; human, plasma, 100 mg oral once daily, day 14, read-out: Vz,ss/F", "result": "362 ± 75.9", "unit": "L"},
      {"measurement": "Tmax", "setting": "[1]; human, plasma, 100 mg oral, day 1, median (range), read-out: Tmax", "result": 1.5, "unit": "h"},
      {"measurement": "CLss/F", "setting": "[1]; 100 mg oral once daily, day 14", "result": "27.5 ± 5.12", "unit": "L/h"},
      {"measurement": "Cavg", "setting": "[1]; 100 mg oral once daily, day 14", "result": "157 ± 31.2", "unit": "ng/mL"},
      {"measurement": "Tmax,ss", "setting": "[1]; [5]", "result": "3.00 (0.500-5.00) h"},
      {"measurement": "Cmax", "setting": "[1]; 100 mg oral, day 1", "result": "394 ± 105", "unit": "ng/mL"},
      {"measurement": "time of daily dosing after which steady-state conditions were reached", "setting": "[1]; once daily dosing, trough concentrations days 7, 10, 14", "result": 1, "unit": "week"},
      {"measurement": "GLP-1 Baseline (value before dosing)", "setting": "plasma active GLP-1; 100 mg group, day 1 before dosing", "result": "0.442 ± 0.406", "unit": "pM"},
      {"measurement": "R0h,ss (baseline plasma active GLP-1 on day 14)", "setting": "plasma active GLP-1; 100 mg oral once daily, day 14", "result": "1.700 ± 0.851", "unit": "pM"},
      {"measurement": "△GLP-1-6h (change at 2 h after lunch)", "setting": "plasma active GLP-1; 100 mg oral once daily, day 14", "result": "6.553 ± 3.739", "unit": "pM"},
      {"measurement": "△GLP-1-12h (change at 2 h after dinner)", "setting": "plasma active GLP-1; 100 mg oral once daily, day 14", "result": "5.775 ± 4.299", "unit": "pM"},
      {"measurement": "△GLP-1 Ravg,ss", "setting": "plasma active GLP-1; 100 mg oral once daily, day 14", "result": "3.821 ± 2.361", "unit": "pM"},
      {"measurement": "△GLP-1 Rmax,ss", "setting": "plasma active GLP-1; 100 mg oral once daily, day 14", "result": "8.080 ± 3.592", "unit": "pM"},
      {"measurement": "R0h,ss (baseline plasma active GLP-1 on day 14)", "setting": "plasma active GLP-1; 100 mg oral once daily, day 14, listed as sitagliptin", "result": 1.700, "unit": "pM"},
      {"measurement": "△GLP-1 TRmax,ss", "setting": "plasma active GLP-1; [5]", "result": "5.00 (5.00-6.00) h"},
      {"measurement": "△GLP-1-6h (change at 2 h after lunch)", "setting": "plasma active GLP-1; 100 mg oral, day 1", "result": "3.491 ± 1.703", "unit": "pM"},
      {"measurement": "△GLP-1-12h (change at 2 h after dinner)", "setting": "plasma active GLP-1; 100 mg oral, day 1", "result": "3.764 ± 2.490", "unit": "pM"},
      {"measurement": "△GLP-1 AUEC0-24h", "setting": "plasma active GLP-1; 100 mg oral, day 1", "result": "61.2 ± 28.6", "unit": "pM·h"},
      {"measurement": "△GLP-1 Rmax", "setting": "plasma active GLP-1; 100 mg oral, day 1", "result": "5.901 ± 2.375", "unit": "pM"},
      {"measurement": "△GLP-1 TRmax", "setting": "plasma active GLP-1; 100 mg oral, day 1, median (range)", "result": "7.00 (5.00-12.00) h"},
      {"measurement": "decrease of HbA1c compared with baseline", "setting": "[2]", "result": 0.44, "unit": "%"},
      {"measurement": "glucose AUEC0-t (OGTT)", "setting": "[3]; 100 mg group, day -1 (baseline before dosing)", "result": "44.07 ± 5.74", "unit": "mmol·h/L"},
      {"measurement": "glucose AUEC0-t (OGTT)", "setting": "[3]; day 15 after 100 mg once daily for 14 days", "result": "43.40 ± 6.51", "unit": "mmol·h/L"},
      {"measurement": "intensity of drug-related adverse events", "setting": "[4]; cetagliptin 50 or 100 mg, sitagliptin 100 mg", "result": "mild"},
      {"measurement": "number of drug-related AEs", "setting": "[4]; [6]", "result": 7, "unit": "AEs"},
      {"measurement": "number of subjects reporting drug-related AEs", "setting": "[4]; [6]", "result": 3, "unit": "subjects"}
    ]}
  ]
}
